This passage reports cytotoxicity results from ChEMBL document CHEMBL3507680, “University of Dundee, Gates Library screen for HepG2 cell viability”.

Structures are written as SMILES.

A short description of this data set: Human HepG2 cell viability assay in 384 well format. The class given is toxicity, cell-based. On the set-up: dose 125 nL, time 70.5 hour; concentration not given beside the values. The conditions noted are these: HepG2 cells, read-out: Inhibition.
On to `CCC(Nc1ncccn1)c1ccc(OC)cc1` (centres undefined), for which the cytotoxicity at 70.5 h stood at 6.83%. Turning to `CCN(C(=O)Cc1ccc(NCc2ncc[nH]2)cc1)c1ccccc1`, the cytotoxicity at 70.5 h was -5.61%. To `Cc1nn(C)c(Cl)c1C1CCCN1C(=O)CCNc1ncccn1` (centres undefined) belongs -2.34%; to `Cc1nc(C2CCCN2C(=O)CCc2ccc(F)cc2)ncc1C(N)=O` (centres undefined), -10.3%; to `Cc1cccc(CCC(=O)N2CCCC(c3cc(C(N)=O)[nH]n3)C2)c1` (centres undefined), 19%. Next, `Cc1ccsc1CNC(=O)c1ccc(N2CCOC2=O)cc1`: -7.71%; `CC(=O)N[C@@H]1C[C@H](Cc2ccccc2)O[C@H](c2ccc(C(=O)O)cc2)C1`: -6.19%; `Fc1cccc(F)c1Cn1c(C2CCCNC2)cc2cccnc21` (centres undefined): -5.53%.

For `Cc1cc(C)cc(N2CCN(Cc3cccnc3)CC2=O)c1`, the cytotoxicity at 70.5 h was -7.86%. To `Nc1cnc(-c2cccc3c2CCNC3)cn1` belongs -15.3%. To `COc1ccc2cc(CN(C)C(C)c3nc(C(C)(C)C)no3)ccc2c1` (centres undefined) belongs -5.37%; to `O=C(Cn1cccn1)NCC1(c2ccccc2)CC1`, 24.2%. Next, `Cc1cccc(OCc2ccc(C(=O)N3N=CCC3(O)C(F)(F)F)o2)c1` (centres undefined): 9.08%; `CC(C)n1ccnc1CN1CCCC1c1cccc(-n2ccnc2)n1` (centres undefined): -2.76%; `O=C1COc2cc(C(=O)NCc3ccc(Cl)s3)ccc2N1`: -2.5%. For the compound `Cc1cc(C)n(C2CCCN(C(=O)c3cc(C4CC4)on3)C2)n1` (centres undefined), the cytotoxicity at 70.5 h turned out to be 0.784%. On to `CN(C)Cc1ccnc(NS(=O)(=O)Cc2cccc(F)c2)c1`, for which the cytotoxicity at 70.5 h worked out at 1.98%. Next, `CCn1cnnc1CNC(=O)N(C)Cc1cccc(OC(F)F)c1`: -0.632%; `CC1=Nc2c(c(=O)[nH]n2C2CCOCC2)C(c2cccc(O)c2)S1` (centres undefined): -7.06%. As for `Cc1cc2nc(C(C)C)cc(N[C@H](C(N)=O)C(C)C)n2n1`, the cytotoxicity at 70.5 h is 32.4%. To `N#Cc1cccc(Oc2ccc(CN3CCCC3)cc2Cl)n1` belongs 18.1%; to `Cc1ccccc1[C@@H]1CN(Cc2nc3ncccn3n2)C[C@H]1C(=O)O`, 3.89%. Take `O=C(CCc1ccc(C(F)(F)F)cc1)N1CCCS1(=O)=O`: the cytotoxicity at 70.5 h was -4.91%. In the case of `COc1ccc(C2=NOC(C(=O)N3CCCc4ccccc43)C2)cc1` (centres undefined), the cytotoxicity at 70.5 h amounted to 8.49%.

As for `CCN1CCN(c2ncc(-c3cc(C)no3)c(-c3ccc(C)s3)n2)CC1`, the cytotoxicity at 70.5 h is -27.4%. Next, `Cc1nn(C)c2nc(N(CCOc3ccccc3)CC3CCCO3)sc12` (centres undefined): 21%. For the compound `Cc1nnc(NC(=O)NCc2cc(F)cc(F)c2)s1`, the cytotoxicity at 70.5 h is -14.2%. To `CCc1ccsc1C(=O)N(C)CCc1ccncc1` belongs -1.38%. To `Cc1nn(CCO)c(C)c1CN1CCN(C2CCCCC2)C(=O)C1` belongs 0.129%; to `Cc1nn(C)cc1NC(=O)CN1CCC(Oc2cnccn2)CC1`, -4.13%; to `Cc1cccc(C(=O)NCCCN2CCc3ccccc3C2)c1C`, -7.53%.

Take `CC(C)N1CC2(CCCN(c3ncc(Cl)cc3F)C2)CCC1=O` (centres undefined): the cytotoxicity at 70.5 h was -4.82%. For `Cc1nnc(C2Cc3ccccc3CN2Cc2ncc(C(C)(C)C)o2)o1` (centres undefined), the cytotoxicity at 70.5 h was 34.5%. To `CC[C@@]1(O)CCN(c2ncc(Cl)cc2C(F)(F)F)C[C@H]1O` belongs 20.8%; to `CC1CCc2[nH]c(=O)c(C(=O)N3CCc4ccccc4C3)cc2C1` (centres undefined), 0.747%; to `O=C(O)c1ccnc(-c2ccnc(COc3ccccc3Cl)n2)c1`, -7.03%. To `COCCn1c(=O)n(C)c(=O)c2ccc(C3CCC(CN)CC3)nc21` (centres undefined) belongs -6.32%; to `O=C(NCC1CCCCC1)c1nnn(-c2ccc(Br)cc2)n1`, -6.14%; to `CCc1ccc(OCC(O)CN2CCC(O)CC2)cc1` (centres undefined), 24.8%. Next, `COc1cc(N2CCC(c3nccn3Cc3ccccc3)CC2)ncn1`: -1.15%. With `Cc1ccccc1OCCN1CCCC1CS(N)(=O)=O` (centres undefined), the cytotoxicity at 70.5 h was found to be 0.0321%.

As for `CN1CC=C(CCN(C)C(=O)CCc2ccccc2)CC1`, the cytotoxicity at 70.5 h is -6.34%. Next, `Cc1ccc(N2CCCC3(COCCN(c4ncccn4)C3)C2)nn1` (centres undefined): 4.86%; `CCS(=O)(=O)N(C)c1ccc(C(=O)N2CCCC(C)C2)cc1` (centres undefined): -7.21%. For `Cc1noc(Cl)c1CC(=O)N1CCC(Nc2cccnn2)CC1`, the cytotoxicity at 70.5 h was -1.04%. To `CC(C)NC(=O)Nc1ccc(-c2nc(C(C)C)no2)cc1` belongs -8.44%; to `Cc1cc(C)n(C2CN(C(=O)Cn3c(C)cc(=O)c4ccccc43)C2)n1`, -5.3%. Next, `CN(C)c1nc2c(c(=O)[nH]1)CCN(C(=O)c1c[nH]c(=O)c(Cl)c1)C2`: -0.451%; `CCCn1nnnc1CSc1nccn1C`: -7.23%. To `Cc1ncc(CN2CCN(c3ccc4nncn4n3)C(C)C2)s1` (centres undefined) belongs -11.1%.

In the case of `CCOc1ccc(-c2ccnc(C3CC3)n2)cc1C(=O)O`, the cytotoxicity at 70.5 h is -3.39%. Turning to `CCN(CC(=O)NC(C)(C)C)Cc1cccc2c1OCCO2`, the cytotoxicity at 70.5 h was -11.6%. To `CC(=O)N[C@@H]1CN(C2CCN(c3ccccc3F)CC2)C[C@H]1C(C)C` belongs -10.5%; to `CS(=O)(=O)NCCNCc1ccc(Br)s1`, 3.93%; to `CC1CCN(C(=O)C2(Cc3cc(C4CCOC4)no3)CCNCC2)CC1` (centres undefined), -1.77%. Next, `COCCNC(=O)[C@H]1CO[C@H]2CCN(Cc3cccs3)C[C@H]2C1`: -1.82%. `O=C(NCCCN1CCOCC1)c1cc(-c2ccco2)[nH]n1`: the cytotoxicity at 70.5 h was -11.6%. Next, `CC1CN(C(=O)Nc2cc(C(F)(F)F)c[nH]c2=O)CC(C)(C)O1` (centres undefined): -8.86%; `c1ccc2c(c1)CC(Cc1cc(N3CCCC3)cnn1)CO2` (centres undefined): -7.55%. As for `COCCN1CCOCC2(CCN(c3cnccn3)CC2)C1`, the cytotoxicity at 70.5 h came out at 8.46%.

`COCc1cc(NCCCSc2nnc(C)s2)ncn1`: the cytotoxicity at 70.5 h is -6.65%.

Take `CN(C)C(=O)CCC1CCCN(Cc2ccc(-c3cccnc3)cc2)C1` (centres undefined): the cytotoxicity at 70.5 h is -10.4%.

With `CC1CN(c2ncccc2C(=O)N[C@@H]2CCCc3ccccc32)CCN1` (some centres undefined), the cytotoxicity at 70.5 h was -4.37%. As for `Cc1ccc2c(c1)C1(CCNCC1)CC2OCC1CC1` (centres undefined), the cytotoxicity at 70.5 h is -1.43%. Next, `CCOC(=O)c1n[nH]cc1-c1cncn1CCn1nc(C)c(Cl)c1C`: -5.26%; `COc1c(CNC2CCc3cc(F)ccc32)c(C)nn1C` (centres undefined): -15.1%; `CC(=O)N1C[C@@H]2CC[C@H](C1)N(S(=O)(=O)c1cc(F)ccc1C)C2`: -10.6%. As for `O=C(CN1CCOC(Cn2cccn2)C1)NC1CCN(C2CC2)CC1` (centres undefined), the cytotoxicity at 70.5 h was -6.52%.

In the case of `O=C(c1cncc(NCC2COc3ccccc3C2)n1)N1CCCC1` (centres undefined), the cytotoxicity at 70.5 h is 14.9%.

For `CN1CCN(C[C@H]2OC[C@@H]3CCN(Cc4ccsc4)C[C@@H]32)CC1`, the cytotoxicity at 70.5 h is -0.843%. To `CNC(=O)COc1ccc(CNCc2ccc(F)cc2F)cc1` belongs -3.23%; to `COc1cc2nc(NCc3scnc3C)nc(N)c2cc1OC`, 8.57%. Next, `Cc1cc(=O)n(C)cc1NC(=O)Cc1ccc(C(F)(F)F)cc1`: 0.135%; `CNc1nc2c(c(C(=O)N3CCCC3)n1)CN(C(=O)C1CCCC1)CC2`: 15.7%; `COc1ccnc(N2CCN(C(C)c3nc(C)no3)CC2)n1` (centres undefined): 4.57%.

Take `O=C(Cc1cn2ccccc2n1)N1CCCC(n2cccn2)C1` (centres undefined): the cytotoxicity at 70.5 h was determined as 23.8%. Next, `O=C(NCC1CCCCO1)c1ccc(-c2ccco2)[nH]c1=O` (centres undefined): -8.49%; `Cc1ccc(CSc2nc(N)cc(NCC(=O)N3CCNCC3)n2)cc1`: -4.01%; `COc1cccc2c1OCC(CNC(=O)CNC(N)=O)C2` (centres undefined): -4.9%. To `CC1CCN(C(=O)c2cccc3ncccc23)CC1` belongs 4.77%; to `CCc1ncncc1C(=O)N1CCN(Cc2cscn2)CC1`, -3.97%.

Consider `CCN1CCC(CC(=O)N(C)CC(=O)c2ccc(O)cc2)CC1`, for which the cytotoxicity at 70.5 h is -8.66%.

On to `O=C(c1cccnc1)N1CCN2C[C@H](OCc3ccccc3)C[C@H]2C1`, for which the cytotoxicity at 70.5 h is -5.95%.

Regarding `Cc1ccc(NCc2cc(C#N)ccc2F)cc1-n1nnnc1C`, the cytotoxicity at 70.5 h was -13.2%. Next, `Cc1ccc(O)c(CN(Cc2ccccc2)Cc2nccs2)n1`: -4.83%.

On to `CCC1CCCCCN1C(=O)c1nnc2ccccc2c1N` (centres undefined), for which the cytotoxicity at 70.5 h is -2.66%. Next, `CC(C)c1nnc2n1CCN(C(=O)c1ccc3c(c1)NC(=O)CO3)C2`: -2.96%. Next, `COCC[C@]1(O)CCN(C(=O)CCn2c(C)cccc2=O)C[C@H]1C`: 12.1%; `Cc1cc(C)cc(CN2CCN(C(=O)COCC3CCCO3)CC2=O)c1` (centres undefined): -5.03%; `CS(=O)(=O)N1C[C@@H]2CC[C@H](C1)N(CCC(=O)NCc1ccco1)C2`: 4.49%. To `CC(C)CN1CCCn2nc(CNC(=O)CN3CCOC3=O)cc2C1` belongs -7.41%; to `Cc1cccc(C)c1NC(=O)NCC1CCCN(C2CCOCC2)C1` (centres undefined), -8.66%; to `Cn1cccc1-c1nnc(C2(c3ccc4c(c3)OCO4)CCOCC2)o1`, -9.42%.

`c1cncc(CN(CCCn2ccnc2)CC2CCOC2)c1` (centres undefined): the cytotoxicity at 70.5 h is -1.27%. On to `CC(C)[C@H]1COC(=O)N1Cc1nncn1C(C)C`, for which the cytotoxicity at 70.5 h was -7.29%. For `CC(C(=O)Nc1ccc(Cl)cn1)N1CCc2nn(C)c(=O)cc2C1` (centres undefined), the cytotoxicity at 70.5 h was -2.78%. Consider `CCN(Cc1cnc(C)cn1)C1CCN(c2ccccc2)C1=O` (centres undefined), for which the cytotoxicity at 70.5 h was determined as 2.9%.

Take `CC(=O)N1CCC2(CC1)CN(C)C(=O)C[C@H]2C(F)(F)F`: the cytotoxicity at 70.5 h is -7.04%.

For `COc1cc(F)c(S(=O)(=O)N2c3ncccc3NC(=O)C2C)cc1OC` (centres undefined), the cytotoxicity at 70.5 h was -5.44%.
